In patent US20120225862A1, “HETEROARYL BENZAMIDES, COMPOSITIONS AND METHODS OF USE” (AUCKLAND UNIVSERVICES LIMITED, priority 2009, published 2012):

What was measured:
[1] = target: T1, Flt3 (Homo sapiens, UniProt P36888); test: In vitro kinase activity (Millipore KinaseProfiler): Flt3; type: biochemical; settings: no head or unit printed
T1 construct: purchased Millipore (KinaseProfiler service)
Protocol: (§1) All cells were grown in DMEM+10% FCS. ACHN and ACHN shVHL were a kind gift from George V. Thomas (UCLA). HIF overexpressing clones were described previously. Transfection of RNA oligos were performed with DnarmaFECT Reagent 1 (Dharmcon), according to manufacturer's directions. ON-TARGETplus SMART pools against HIF-1β/ARNT were purchased from Dharmacon. Glut1 was detected with anti-GLUT1 antibody from NeoMarkers/LabVision/Fisher. Pyruvate/lactate levels and hexokinase activity were both measured by fluorometric assay (BioVision and Sigma-Aldrich, respectively). ATP levels were measured by bioluminescence assay (ATP Determination Kit from Molecular Probes/Invitrogen). In vitro kinase activities were performed by Millipore KinaseProfiler. Affi-Gel 10 (BioRad) activated affinity media was coupled to analogs to generate immobilized affinity linkers.
(§2) We next wanted to investigate the differential glucose uptake between RCCs with and without VHL treated with compound 47 that subsequently lead to the selective death of VHL-deficient cells. We first examined the message levels of the two main glucose transporters, GLUT1 and GLUT2 by quantitative real-time PCR. GLUT1 is an inducible, high-affinity glucose transporter, while GLUT2 is the glucose transporter responsible for basal glucose uptake. […] Cells deficient in VHL had very low levels of GLUT2 that could barely be detected (FIG. 3J). […]

[2] = target: T2, CSK (Homo sapiens, UniProt P41240); test: In vitro kinase activity (Millipore KinaseProfiler): CSK; type: biochemical; settings: no head or unit printed
T2 construct: purchased Millipore (KinaseProfiler service)
T2 sequence (P41240 whole entry, species assumed): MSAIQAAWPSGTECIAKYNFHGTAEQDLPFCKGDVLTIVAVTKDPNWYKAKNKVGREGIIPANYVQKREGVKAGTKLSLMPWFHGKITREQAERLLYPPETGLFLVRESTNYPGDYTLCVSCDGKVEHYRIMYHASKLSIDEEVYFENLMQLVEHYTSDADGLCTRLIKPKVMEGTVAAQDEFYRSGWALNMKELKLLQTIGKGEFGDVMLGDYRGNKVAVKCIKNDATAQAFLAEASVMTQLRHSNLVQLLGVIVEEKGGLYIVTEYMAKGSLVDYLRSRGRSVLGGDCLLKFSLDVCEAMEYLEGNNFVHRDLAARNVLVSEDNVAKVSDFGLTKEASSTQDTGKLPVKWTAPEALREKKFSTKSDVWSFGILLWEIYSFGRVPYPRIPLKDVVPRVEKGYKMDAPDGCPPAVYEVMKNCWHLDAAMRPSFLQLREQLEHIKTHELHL
Protocol: as §1, §2

[3] = tested on: RCC4; test: XTT IC50 / viability assay, RCC4 cells; type: cell-based, human
In short: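 RCC4 parental and VHL-reintroduced RCC4/VHL cells (DMEM, 10% FCS) treated with serially diluted drug for four days. Viability by XTT (0.3 mg/mL) with N-methyl dibenzopyrazine methyl sulfate, 1–2 h at 37 °C, absorbance 450 nm; IC50 by linear interpolation.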

[4] = target: T3, PKCδ (Homo sapiens, UniProt Q05655); test: In vitro kinase activity (Millipore KinaseProfiler): PKCδ; type: biochemical; settings: no head or unit printed
T3 construct: purchased Millipore (KinaseProfiler service)
T3 sequence (Q05655 whole entry): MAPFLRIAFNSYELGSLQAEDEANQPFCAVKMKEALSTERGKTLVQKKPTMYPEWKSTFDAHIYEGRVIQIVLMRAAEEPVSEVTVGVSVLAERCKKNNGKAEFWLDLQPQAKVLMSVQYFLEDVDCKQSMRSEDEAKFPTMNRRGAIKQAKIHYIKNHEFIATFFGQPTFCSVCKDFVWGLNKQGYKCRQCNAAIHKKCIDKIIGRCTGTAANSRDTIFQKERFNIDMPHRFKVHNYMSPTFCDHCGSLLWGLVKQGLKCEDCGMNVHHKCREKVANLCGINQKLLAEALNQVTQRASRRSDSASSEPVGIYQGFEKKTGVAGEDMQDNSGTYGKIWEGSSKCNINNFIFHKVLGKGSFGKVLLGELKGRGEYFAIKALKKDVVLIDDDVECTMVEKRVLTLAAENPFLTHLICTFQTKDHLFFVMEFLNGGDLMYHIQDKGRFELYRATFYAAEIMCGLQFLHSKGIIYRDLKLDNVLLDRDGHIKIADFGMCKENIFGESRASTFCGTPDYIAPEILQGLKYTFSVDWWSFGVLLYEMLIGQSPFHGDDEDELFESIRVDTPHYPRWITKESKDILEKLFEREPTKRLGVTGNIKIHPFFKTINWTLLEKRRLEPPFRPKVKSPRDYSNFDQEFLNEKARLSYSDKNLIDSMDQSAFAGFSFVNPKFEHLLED
Protocol: as §1, §2

[5] = target: T4, IRAK1 (Homo sapiens, UniProt P51617); test: In vitro kinase activity (Millipore KinaseProfiler): IRAK1; type: biochemical; settings: no head or unit printed
T4 construct: purchased Millipore (KinaseProfiler service)
T4 sequence (P51617 whole entry, species assumed): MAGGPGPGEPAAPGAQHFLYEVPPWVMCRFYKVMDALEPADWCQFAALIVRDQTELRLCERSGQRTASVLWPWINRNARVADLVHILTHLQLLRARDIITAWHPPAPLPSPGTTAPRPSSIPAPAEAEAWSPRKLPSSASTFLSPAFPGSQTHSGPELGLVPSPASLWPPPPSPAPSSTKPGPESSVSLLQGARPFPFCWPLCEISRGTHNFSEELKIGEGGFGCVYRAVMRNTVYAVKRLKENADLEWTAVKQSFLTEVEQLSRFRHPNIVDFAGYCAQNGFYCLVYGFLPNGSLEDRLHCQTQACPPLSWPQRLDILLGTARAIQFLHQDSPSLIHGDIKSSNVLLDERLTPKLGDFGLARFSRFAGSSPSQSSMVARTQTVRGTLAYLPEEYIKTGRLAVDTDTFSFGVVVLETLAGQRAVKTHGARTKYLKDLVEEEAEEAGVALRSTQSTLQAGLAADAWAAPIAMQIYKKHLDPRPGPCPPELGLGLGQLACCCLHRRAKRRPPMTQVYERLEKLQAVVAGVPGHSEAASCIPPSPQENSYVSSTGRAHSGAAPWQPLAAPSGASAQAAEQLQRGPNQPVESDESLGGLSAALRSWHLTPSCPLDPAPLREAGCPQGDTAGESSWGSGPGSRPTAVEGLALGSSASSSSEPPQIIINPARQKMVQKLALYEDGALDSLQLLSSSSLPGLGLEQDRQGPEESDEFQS
Protocol: as §1, §2

[6] = target: T5, IGF-1R (Homo sapiens, UniProt P08069); test: In vitro kinase activity (Millipore KinaseProfiler): IGF-1R; type: biochemical; settings: no head or unit printed
T5 construct: purchased Millipore (KinaseProfiler service)
Protocol: as §1, §2

[7] = target: T6, Abl (Homo sapiens, UniProt P00519); test: In vitro kinase activity (Millipore KinaseProfiler): Abl; type: biochemical; settings: no head or unit printed
T6 construct: purchased Millipore (KinaseProfiler service)
Protocol: as §1, §2

[8] = target: T7, IR (Homo sapiens, UniProt P06213); test: In vitro kinase activity (Millipore KinaseProfiler): IR; type: biochemical; settings: no head or unit printed
T7 construct: purchased Millipore (KinaseProfiler service)
T7 sequence (P06213 28-1382): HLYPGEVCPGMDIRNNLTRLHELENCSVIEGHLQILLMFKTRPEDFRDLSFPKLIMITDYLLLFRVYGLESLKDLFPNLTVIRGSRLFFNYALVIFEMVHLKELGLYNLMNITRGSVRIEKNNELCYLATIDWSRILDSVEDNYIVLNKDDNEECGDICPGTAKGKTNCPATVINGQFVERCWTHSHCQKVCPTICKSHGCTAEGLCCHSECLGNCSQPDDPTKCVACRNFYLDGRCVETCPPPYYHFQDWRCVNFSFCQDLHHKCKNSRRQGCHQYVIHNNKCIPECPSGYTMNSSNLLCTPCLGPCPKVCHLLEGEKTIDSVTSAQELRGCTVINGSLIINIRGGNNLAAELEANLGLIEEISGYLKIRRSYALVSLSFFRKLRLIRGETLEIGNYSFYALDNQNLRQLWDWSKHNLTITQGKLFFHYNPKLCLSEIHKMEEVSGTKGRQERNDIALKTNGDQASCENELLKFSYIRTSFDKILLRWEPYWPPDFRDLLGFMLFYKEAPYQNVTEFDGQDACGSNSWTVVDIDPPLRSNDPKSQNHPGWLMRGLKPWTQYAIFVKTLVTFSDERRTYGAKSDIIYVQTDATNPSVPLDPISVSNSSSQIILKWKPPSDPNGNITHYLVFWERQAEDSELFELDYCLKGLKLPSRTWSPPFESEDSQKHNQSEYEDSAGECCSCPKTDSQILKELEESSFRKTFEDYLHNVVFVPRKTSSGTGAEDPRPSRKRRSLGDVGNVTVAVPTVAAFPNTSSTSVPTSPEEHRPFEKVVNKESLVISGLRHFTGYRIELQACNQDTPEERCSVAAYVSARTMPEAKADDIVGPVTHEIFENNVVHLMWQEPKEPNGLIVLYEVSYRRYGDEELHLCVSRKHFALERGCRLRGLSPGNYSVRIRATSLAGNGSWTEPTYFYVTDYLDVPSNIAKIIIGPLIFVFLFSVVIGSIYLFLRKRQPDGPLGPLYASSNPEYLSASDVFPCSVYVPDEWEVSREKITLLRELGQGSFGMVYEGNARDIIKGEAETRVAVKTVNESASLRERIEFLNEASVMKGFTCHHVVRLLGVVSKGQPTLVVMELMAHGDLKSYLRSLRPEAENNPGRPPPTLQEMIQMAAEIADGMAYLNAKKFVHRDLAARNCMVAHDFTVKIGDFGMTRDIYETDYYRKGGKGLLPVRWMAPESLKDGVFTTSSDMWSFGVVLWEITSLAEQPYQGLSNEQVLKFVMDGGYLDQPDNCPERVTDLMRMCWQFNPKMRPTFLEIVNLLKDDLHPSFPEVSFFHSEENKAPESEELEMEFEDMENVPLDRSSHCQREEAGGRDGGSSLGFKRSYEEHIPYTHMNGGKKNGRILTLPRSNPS
Protocol: as §1, §2

[9] = tested on: RCC4; test: Clonogenic survival, RCC4; type: cell-based, human
Protocol: Three hundred cells were plated into 60-mm tissue culture dishes in DMEM. The next day, cells were treated with vehicle or drug and were further incubated for an additional 10 days. […] The stain was removed and plates were washed in deionized water. Colonies were quantified. All conditions were measured in triplicate and all experiments were performed in triplicate.
For 2,3-bis[2-methoxy-4-nitro-5-sulfophenyl]-2H-tetrazolium-5-carboxanilide (XTT) assays, five thousand cells were plated in 96-well plates. The next day, vehicle (DMSO) or drug was added by serial dilution. […] Metabolism of XTT was quantified by measuring the absorbance at 450 nm. IC50s were calculated using linear interpolation. For clonogenic survival assays, three hundred cells were plated per 60 mm tissue culture dish. The cells were allowed to attach overnight and then treated with vehicle or drug for […]. […] All conditions were measured in triplicate and each experiment was done in duplicate or triplicate. To determine necrosis, cells were treated with drug for a given time point. Media and cells were collected, centrifugated, and resuspended in 0.4% trypan blue (Invitrogen). Live and dead cells were counted on a hematocytometer.

[10] = target: T8, MSK1 (Homo sapiens, UniProt O75582); test: In vitro kinase activity (Millipore KinaseProfiler): MSK1; type: biochemical; settings: no head or unit printed
T8 construct: purchased Millipore (KinaseProfiler service)
T8 sequence (O75582 whole entry, species assumed): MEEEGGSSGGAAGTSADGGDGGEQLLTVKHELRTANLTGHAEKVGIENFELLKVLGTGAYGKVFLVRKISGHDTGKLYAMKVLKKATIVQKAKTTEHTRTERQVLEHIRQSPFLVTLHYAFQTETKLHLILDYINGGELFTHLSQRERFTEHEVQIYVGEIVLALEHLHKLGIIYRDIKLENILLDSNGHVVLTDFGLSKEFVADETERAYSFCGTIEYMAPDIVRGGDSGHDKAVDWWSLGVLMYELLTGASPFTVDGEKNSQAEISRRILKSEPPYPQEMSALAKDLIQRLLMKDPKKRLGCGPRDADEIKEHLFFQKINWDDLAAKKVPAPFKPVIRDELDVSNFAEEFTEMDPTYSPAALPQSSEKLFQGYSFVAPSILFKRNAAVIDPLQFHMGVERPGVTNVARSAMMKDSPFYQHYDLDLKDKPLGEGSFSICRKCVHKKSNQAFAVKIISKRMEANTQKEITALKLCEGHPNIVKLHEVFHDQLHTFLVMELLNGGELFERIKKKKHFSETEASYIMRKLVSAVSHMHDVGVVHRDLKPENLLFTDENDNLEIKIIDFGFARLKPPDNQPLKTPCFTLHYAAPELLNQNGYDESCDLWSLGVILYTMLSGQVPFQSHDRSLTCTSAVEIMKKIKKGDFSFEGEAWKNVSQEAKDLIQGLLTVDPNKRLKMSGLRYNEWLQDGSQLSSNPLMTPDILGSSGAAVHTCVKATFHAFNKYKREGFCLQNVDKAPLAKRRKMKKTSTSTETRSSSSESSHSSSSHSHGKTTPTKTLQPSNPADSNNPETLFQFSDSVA
Protocol: as §1, §2

[11] = target: T9, Rsk1 (Homo sapiens, UniProt Q15418); test: In vitro kinase activity (Millipore KinaseProfiler): Rsk1; type: biochemical; settings: no head or unit printed
T9 construct: purchased Millipore (KinaseProfiler service)
Protocol: as §1, §2

T1 sequence (P36888 27-993, species assumed): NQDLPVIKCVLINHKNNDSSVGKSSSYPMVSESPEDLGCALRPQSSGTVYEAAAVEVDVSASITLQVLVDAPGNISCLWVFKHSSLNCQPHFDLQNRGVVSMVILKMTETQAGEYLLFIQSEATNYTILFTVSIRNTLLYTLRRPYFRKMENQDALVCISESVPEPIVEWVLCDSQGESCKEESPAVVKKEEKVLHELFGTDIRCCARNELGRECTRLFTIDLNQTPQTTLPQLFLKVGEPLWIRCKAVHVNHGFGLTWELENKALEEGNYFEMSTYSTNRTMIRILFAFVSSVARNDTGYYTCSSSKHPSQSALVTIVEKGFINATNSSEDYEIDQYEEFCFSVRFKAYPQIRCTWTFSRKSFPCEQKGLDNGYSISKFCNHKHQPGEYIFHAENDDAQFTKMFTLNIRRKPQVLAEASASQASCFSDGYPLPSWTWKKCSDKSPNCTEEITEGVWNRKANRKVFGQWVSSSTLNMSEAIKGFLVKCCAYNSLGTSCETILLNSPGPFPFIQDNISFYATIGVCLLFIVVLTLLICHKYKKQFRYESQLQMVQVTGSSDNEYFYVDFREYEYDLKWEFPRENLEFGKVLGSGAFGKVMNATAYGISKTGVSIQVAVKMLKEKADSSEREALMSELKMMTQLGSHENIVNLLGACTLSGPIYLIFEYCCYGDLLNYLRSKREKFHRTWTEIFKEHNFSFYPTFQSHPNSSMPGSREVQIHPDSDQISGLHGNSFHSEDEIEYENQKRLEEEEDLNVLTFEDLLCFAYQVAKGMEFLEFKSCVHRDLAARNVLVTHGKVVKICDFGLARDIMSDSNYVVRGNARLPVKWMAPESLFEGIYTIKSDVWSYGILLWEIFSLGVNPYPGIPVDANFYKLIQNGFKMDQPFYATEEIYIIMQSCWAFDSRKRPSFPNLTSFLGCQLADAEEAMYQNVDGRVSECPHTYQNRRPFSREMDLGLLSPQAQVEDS

CC(C)(C)c1ccc(S(=O)(=O)NCc2ccc(C(=O)Nc3cccnc3)cc2)cc1 [Example 38, 4-((4-tert-Butylphenylsulfonamido)methyl)-N-(pyridin-3-yl)benzamide]
Flt3 kinase activity [1]: 111%
CSK kinase activity [2]: 99
IC50 ([3]; Homo sapiens, RCC4, 96 h, XTT assay, four days): < 1000 nM
number of RCC4 cells compared to RCC4/VHL (XTT metabolic activity) ([3]; four days of treatment, concentration-dependent, FIG. 2A): significant decrease in the number of RCC4 cells
PKCδ kinase activity [4]: 116
IRAK1 kinase activity [5]: 105%
IGF-1R kinase activity [6]: 108
Abl kinase activity [7]: 108
IR kinase activity [8]: 121%
reversibility of induced cell death ([9]; 5 μM, media replaced after indicated time, total 10 days): irreversible after three days
clonogenic survival of RCC4 ([9]; RCC4 (VHL-deficient), 5 μM, 10 days): specifically toxic to RCC4 cells
RCC4 cells killed following treatment ([9]; compound 5 μM, FIG. 2D): Approximately 80%
MSK1 kinase activity [10]: 107
Rsk1 kinase activity [11]: 120%
